From ChEMBL document CHEMBL1123838, “Analgesic dipeptide derivatives. 3. Synthesis and structure-activity relationships of o-nitrophenyl-modified analogues of the analgesic compound H-Lys-Trp(NPS)-OMe” (1987)
Peptide text beside a SMILES is read from it.

Columns and labels:
Format in all cases: functional
Mus musculus [1] = test: Tested for analgesic activity, using Tail-Flick test in Mice at the dose of 1 ug/mouse administered icv after 30 min.
Mus musculus [2] = test: Tested for analgesic activity, using Tail-Flick test in Mice at the dose of 1 ug/mouse administered icv after 5 min.
Mus musculus [3] = test: Tested for analgesic activity, using Tail-Flick test in Mice at the dose of 1 ug/mouse administered icv after 60 min.
Mus musculus [4] = test: Tested for analgesic activity, using Tail-Flick test in Mice at the dose of 2.5 ug/mouse administered icv after 30 min.
Mus musculus [5] = test: Tested for analgesic activity, using Tail-Flick test in Mice at the dose of 2.5 ug/mouse administered icv after 5 min.
Mus musculus [6] = test: Tested for analgesic activity, using Tail-Flick test in Mice at the dose of 0.5 ug/mouse administered icv after 30 min.
Mus musculus [7] = test: Tested for analgesic activity, using Tail-Flick test in Mice at the dose of 0.5 ug/mouse administered icv after 5 min.
Mus musculus [8] = test: Tested for analgesic activity, using Tail-Flick test in Mice at the dose of 0.5 ug/mouse administered icv after 60 min.
Mus musculus [9] = test: Tested for analgesic activity, using Tail-Flick test in Mice at the dose of 2.5 ug/mouse administered icv after 60 min.
Mus musculus [10] = test: Tested for analgesic activity, using Tail-Flick test in Mice at the dose of 0.1 ug/mouse administered icv after 30 min.
Mus musculus [11] = test: Tested for analgesic activity, using Tail-Flick test in Mice at the dose of 0.1 ug/mouse administered icv after 5 min.
Mus musculus [12] = test: Tested for analgesic activity, using Tail-Flick test in Mice at the dose of 0.1 ug/mouse administered icv after 60 min.
Mus musculus [13] = test: Tested for analgesic activity, using Tail-Flick test in Mice at the dose of […] administered icv after 30 min
Mus musculus [14] = test: Tested for analgesic activity, using Tail-Flick test in Mice at the dose of 0.5 ug/mouse administered icv after 5 min

| Compound | Change (Mus musculus [1]) | Change (Mus musculus [2]) | Change (Mus musculus [3]) | Change (Mus musculus [4]) | Change (Mus musculus [5]) | Change (Mus musculus [6]) | Change (Mus musculus [7]) | Change (Mus musculus [8]) | Change (Mus musculus [9]) | Change (Mus musculus [10]) | Change (Mus musculus [11]) | Change (Mus musculus [12]) | Change (Mus musculus [13]) | Change (Mus musculus [14]) |
| --- | --- | --- | --- | --- | --- | --- | --- | --- | --- | --- | --- | --- | --- | --- |
| COC(=O)CCSn1cc(CC(NC(=O)C(N)CCCCN)C(=O)OC)c2ccccc21 (configuration not stated) | 7% | 15% | 9% | 15% | 16% | 10% | 11% | 9% | 0% | – | – | – | – | – |
| CSCC[C@H](N)C(=O)N[C@@H](C)C(=O)NCC(=O)NCC(=O)N[C@@H](Cc1ccc(O)cc1)C(N)=O (H-MAGGY-NH2) | 118% | 210% | 45% | – | – | – | – | 35% | – | 26% | 40% | -7% | 76% | 122% |
| COC(=O)C(Cc1cn(Sc2ccccc2NC(C)=O)c2ccccc12)NC(=O)C(N)CCCCN (configuration not stated) | 20% | 25% | 15% | 26% | 27% | -2% | 0% | 5% | 10% | – | – | – | – | – |
